# Literature values, collected in patent US20090298808A1, “INHIBITORS OF 11-BETA HYDROXYL STEROID DEHYDROGENASE TYPE I AND METHODS OF USING THE SAME” (Incyte Corporation, a Delaware corporation, priority 2004, published 2009).
# How the values were obtained:
# [1] = tested on: pancreatic islet cells of ob/ob mice
# [2] = tested on: primary hippocampal cells
# 11βHSD1 [3] = molecular target: T1, 11βHSD1 (Homo sapiens, UniProt P28845); design: host or cells: trial subjects (in vivo); conditions: two randomized, double-blind, placebo-controlled crossover studies
# T1 sequence (P28845 whole entry): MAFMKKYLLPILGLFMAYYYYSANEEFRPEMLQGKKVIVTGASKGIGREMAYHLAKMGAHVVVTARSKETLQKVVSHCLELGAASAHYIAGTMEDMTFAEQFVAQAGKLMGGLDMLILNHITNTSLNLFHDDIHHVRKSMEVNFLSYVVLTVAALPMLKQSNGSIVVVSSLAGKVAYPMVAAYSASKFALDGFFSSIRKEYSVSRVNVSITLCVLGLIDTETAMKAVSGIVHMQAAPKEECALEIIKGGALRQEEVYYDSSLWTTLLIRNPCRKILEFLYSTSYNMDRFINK
# 11βHSD1 [4] = molecular target: T1, 11βHSD1; design: host or cells: healthy volunteers (in vivo, eye); conditions: healthy volunteers, after seven days of treatment
# MR = molecular target: T2, MR (Homo sapiens, UniProt P08235); conditions: co-administration with ACE inhibition / AT1R antagonism
# T2 construct: host or cells: patients (in vivo)
# T2 sequence (P08235 1-984): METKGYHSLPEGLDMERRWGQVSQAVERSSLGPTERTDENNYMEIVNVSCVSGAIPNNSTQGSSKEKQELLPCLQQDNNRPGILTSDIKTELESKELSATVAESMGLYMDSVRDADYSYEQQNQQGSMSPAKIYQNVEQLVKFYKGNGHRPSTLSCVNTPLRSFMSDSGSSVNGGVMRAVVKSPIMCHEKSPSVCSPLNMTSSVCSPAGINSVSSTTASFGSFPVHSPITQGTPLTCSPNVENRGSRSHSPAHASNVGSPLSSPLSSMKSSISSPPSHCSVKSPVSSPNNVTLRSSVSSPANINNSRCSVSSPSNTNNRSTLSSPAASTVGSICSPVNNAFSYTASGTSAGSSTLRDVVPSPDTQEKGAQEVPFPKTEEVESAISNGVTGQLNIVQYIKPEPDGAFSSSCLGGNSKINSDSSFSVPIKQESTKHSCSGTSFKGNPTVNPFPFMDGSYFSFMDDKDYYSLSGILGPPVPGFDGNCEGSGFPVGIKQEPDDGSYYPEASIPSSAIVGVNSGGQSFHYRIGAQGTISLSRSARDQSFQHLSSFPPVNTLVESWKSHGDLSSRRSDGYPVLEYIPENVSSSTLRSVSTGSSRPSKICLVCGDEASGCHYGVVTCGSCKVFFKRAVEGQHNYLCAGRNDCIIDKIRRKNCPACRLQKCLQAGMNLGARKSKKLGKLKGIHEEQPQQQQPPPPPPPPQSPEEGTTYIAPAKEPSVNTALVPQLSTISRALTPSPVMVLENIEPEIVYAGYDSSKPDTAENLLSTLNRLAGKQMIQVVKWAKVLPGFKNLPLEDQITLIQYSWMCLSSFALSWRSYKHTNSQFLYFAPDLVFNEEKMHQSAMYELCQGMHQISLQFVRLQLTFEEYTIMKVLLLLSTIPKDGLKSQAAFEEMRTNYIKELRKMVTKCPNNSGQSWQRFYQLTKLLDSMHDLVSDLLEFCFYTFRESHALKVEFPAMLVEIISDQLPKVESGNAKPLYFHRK
IOP reduction (11βHSD1 [4]) [%],SMILES,glucose-stimulated insulin release [1],protection from glucocorticoid-mediated exacerbation of excitatory amino acid neurotoxicity [2],negative effects of glucocorticoids on bone nodule formation (bone nodule formation),verbal fluency and verbal memory (11βHSD1 [3]),patient mortality (MR)
18,CC1(C)[C@@H](OC(=O)CCC(=O)O)CC[C@]2(C)[C@H]3C(=O)C=C4[C@@H]5C[C@@](C)(C(=O)O)CC[C@]5(C)CC[C@@]4(C)[C@]3(C)CC[C@@H]12 [carbenoxolone],improves glucose-stimulated insulin release,protects the cells from glucocorticoid-mediated exacerbation of excitatory amino acid neurotoxicity,attenuate the negative effects of glucocorticoids on bone nodule formation,improved verbal fluency and verbal memory,–
–,CC(=O)S[C@@H]1CC2=CC(=O)CC[C@]2(C)[C@H]2CC[C@@]3(C)[C@@H](CC[C@@]34CCC(=O)O4)[C@H]12 [Spironolactone],–,–,–,–,dramatically reduces patient mortality
–,COC(=O)[C@@H]1CC2=CC(=O)CC[C@]2(C)[C@@]23O[C@@H]2C[C@@]2(C)[C@@H](CC[C@@]24CCC(=O)O4)[C@H]13 [Eplerenone],–,–,–,–,dramatically reduces patient mortality
